In BigSolDB 2.1:

CNC(=O)c1cc(Oc2ccc(N)cc2)ccn1
solubility (mole fraction)
Conditions	in THF	in acetone	in acetonitrile	in acetylacetone	in dichloromethane	in ethyl acetate	in methanol	in n-butanol	in n-propanol	in water
278.15 K	0.0919	0.046	0.0286	0.0202	0.00511	0.0568	0.00985	0.0041	0.00552	0.000327
283.15 K	0.0992	0.0481	0.033	0.0214	0.00821	0.0667	0.0126	0.0047	0.00674	0.00035
288.15 K	0.108	0.0514	0.0401	0.0232	0.0139	0.0793	0.0162	0.00592	0.00879	0.000387
293.15 K	0.119	0.0558	0.0497	0.0256	0.0211	0.0939	0.0212	0.00796	0.0114	0.000438
298.15 K	0.13	0.0616	0.0601	0.0285	0.0297	0.112	0.0285	0.0101	0.0145	0.000506
303.15 K	0.144	0.0683	0.0737	0.0321	0.0413	0.131	0.0378	0.0135	0.0185	0.000598
308.15 K	0.159	0.0766	0.091	0.0367	0.0549	0.154	0.0497	0.0174	0.0241	0.000715
313.15 K	0.174	0.086	0.11	0.042	0.0727	0.181	0.0642	0.0225	0.0312	0.000857
318.15 K	0.194	0.0975	0.134	0.048	0.0947	0.209	0.0825	0.0287	0.0398	0.00106
323.15 K	0.214	0.112	0.161	0.0558	0.123	0.242	0.106	0.0369	0.0507	0.00133
